In ChEMBL document CHEMBL4118257, “Discovery of 2-(3,5-difluoro-4-methylsulfonaminophenyl)propanamides as potent TRPV1 antagonists” (Bioorg Med Chem Lett, 2018):

Tests used:
[1] = molecular target: T1, Transient receptor potential cation channel subfamily V member 1 (Homo sapiens, UniProt Q8NER1); test: Antagonist activity at recombinant human TRPV1 expressed in CHOK1 cells assessed as reduction in capsaicin-induced Ca2+ flux after 15 mins by fluo-4-based FLIPR assay; format: cell-based
[2] = molecular target: T1, Transient receptor potential cation channel subfamily V member 1; test: Antagonist activity at recombinant human TRPV1 expressed in CHOK1 cells assessed as reduction in temperature-induced Ca2+ flux after 15 mins at 45 degC by fluo-4-based FLIPR assay; format: cell-based
[3] = molecular target: T1, Transient receptor potential cation channel subfamily V member 1; test: Antagonist activity at recombinant human TRPV1 expressed in CHOK1 cells assessed as reduction in low pH-induced Ca2+ flux after 15 mins by fluo-4-based FLIPR assay; format: cell-based
Rattus norvegicus [4] = test: In vivo antagonist activity at TRPV1 in rat assessed as reduction in capsaicin-induced hypothermia at 3 mg/kg, po relative to control; format: functional
Mus musculus [5] = test: Toxicity in formalin-induced pain mouse model assessed as hyperthermia at 10 mg/kg, po; format: organism-based; details: in vivo
Rattus norvegicus [6] = test: In vivo antagonist activity at TRPV1 in rat assessed as reduction in capsaicin-induced hypothermia at 10 mg/kg, po relative to control; format: functional
Mus musculus [7] = test: Analgesic activity in formalin-induced pain mouse model assessed reduction in pain response at 3 mg/kg, iv measured at 20 to 30 mins post administration by formalin test relative to control; format: functional
[8] = molecular target: Transient receptor potential cation channel subfamily V member 1 (Rattus norvegicus, UniProt O35433); test: Antagonist activity at recombinant rat TRPV1 expressed in HEK293 cells assessed as reduction in capsaicin-induced Ca2+ flux preincubated for 3 mins followed by capsaicin addition measured by calcium 4-dye based FLIPR assay; format: cell-based
Transient receptor potential cation channel subfamily V member 1 (Rattus norvegicus, UniProt O35433), sequence (O35433 whole entry): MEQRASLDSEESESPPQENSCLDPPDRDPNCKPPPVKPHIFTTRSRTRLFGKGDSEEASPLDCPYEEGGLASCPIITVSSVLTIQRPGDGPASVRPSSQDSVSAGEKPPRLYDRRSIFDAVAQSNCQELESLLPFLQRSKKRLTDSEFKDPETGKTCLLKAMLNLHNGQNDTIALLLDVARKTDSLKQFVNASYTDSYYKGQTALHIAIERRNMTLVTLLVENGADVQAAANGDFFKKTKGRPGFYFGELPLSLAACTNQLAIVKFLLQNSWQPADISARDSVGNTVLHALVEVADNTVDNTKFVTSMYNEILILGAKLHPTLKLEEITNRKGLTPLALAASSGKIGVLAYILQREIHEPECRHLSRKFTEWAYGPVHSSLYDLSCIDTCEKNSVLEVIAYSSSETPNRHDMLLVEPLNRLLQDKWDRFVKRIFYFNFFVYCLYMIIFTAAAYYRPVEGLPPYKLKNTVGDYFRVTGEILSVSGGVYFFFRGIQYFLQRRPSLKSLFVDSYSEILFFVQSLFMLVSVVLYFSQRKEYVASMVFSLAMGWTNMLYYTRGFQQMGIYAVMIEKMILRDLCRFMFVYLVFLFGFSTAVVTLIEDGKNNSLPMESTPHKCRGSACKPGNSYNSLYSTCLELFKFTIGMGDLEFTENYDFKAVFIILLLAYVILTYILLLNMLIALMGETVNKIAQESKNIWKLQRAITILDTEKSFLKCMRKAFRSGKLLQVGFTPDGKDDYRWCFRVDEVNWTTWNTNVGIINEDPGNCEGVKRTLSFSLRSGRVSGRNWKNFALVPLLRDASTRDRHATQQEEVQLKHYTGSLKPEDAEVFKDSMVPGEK

T1 sequence (Q8NER1 whole entry): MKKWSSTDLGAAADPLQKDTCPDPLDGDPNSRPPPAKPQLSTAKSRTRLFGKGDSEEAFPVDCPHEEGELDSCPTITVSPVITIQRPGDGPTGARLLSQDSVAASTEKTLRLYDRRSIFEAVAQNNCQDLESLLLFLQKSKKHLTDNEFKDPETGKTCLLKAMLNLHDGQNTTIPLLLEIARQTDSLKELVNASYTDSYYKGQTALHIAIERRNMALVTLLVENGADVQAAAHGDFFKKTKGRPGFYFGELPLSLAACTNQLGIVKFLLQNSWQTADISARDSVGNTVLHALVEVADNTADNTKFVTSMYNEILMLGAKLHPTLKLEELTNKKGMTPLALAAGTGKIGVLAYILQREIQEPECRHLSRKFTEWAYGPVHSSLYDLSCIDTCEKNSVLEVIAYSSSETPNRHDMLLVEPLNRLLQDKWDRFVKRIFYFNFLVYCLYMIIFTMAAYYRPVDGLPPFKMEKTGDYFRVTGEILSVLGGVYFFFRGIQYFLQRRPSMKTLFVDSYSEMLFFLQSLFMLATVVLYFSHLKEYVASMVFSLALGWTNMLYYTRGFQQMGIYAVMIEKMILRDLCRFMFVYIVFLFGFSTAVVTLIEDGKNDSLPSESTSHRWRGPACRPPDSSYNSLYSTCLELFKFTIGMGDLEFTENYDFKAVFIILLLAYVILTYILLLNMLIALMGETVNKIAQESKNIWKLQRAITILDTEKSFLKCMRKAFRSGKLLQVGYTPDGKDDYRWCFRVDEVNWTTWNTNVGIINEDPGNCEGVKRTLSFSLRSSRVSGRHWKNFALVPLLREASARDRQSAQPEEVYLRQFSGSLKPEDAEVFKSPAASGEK

Structure (SMILES) | Ki ([1]; read-out: Ki) [nM] | further results
COc1cc(C(C)C(=O)NCc2ccc(C(F)(F)F)nc2N2CCC(C)CC2)cc(F)c1NS(C)(=O)=O (stereo not drawn) | 0.3 | 
CC1CCN(c2nc(C(F)(F)F)ccc2CNC(=O)C(C)c2cc(F)c(NS(C)(=O)=O)c(Br)c2)CC1 (stereo not drawn) | 0.7 | 
CC1CCN(c2nc(C(F)(F)F)ccc2CNC(=O)C(C)c2ccc(NS(N)(=O)=O)c(F)c2)CC1 (stereo not drawn) | 2.7 | 
C=CC(=O)N(c1ccc(C(C)C(=O)NCc2ccc(C(F)(F)F)nc2N2CCC(C)CC2)cc1F)S(C)(=O)=O (stereo not drawn) | 2.4 | 
CC1CCN(c2nc(C(F)(F)F)ccc2CNC(=O)C(C)c2ccc(NS(C)(=O)=O)c(Cl)c2)CC1 (stereo not drawn) | 2.3 | 
CC1CCN(c2nc(C(F)(F)F)ccc2CNC(=O)C(C)c2ccc(NS(=O)(=O)C(F)(F)F)c(F)c2)CC1 (stereo not drawn) |  | Ki [1]: Not Active
CC1CCN(c2nc(C(F)(F)F)ccc2CNC(=O)C(C)c2cc(F)c(NS(C)(=O)=O)c(F)c2)CC1 (stereo not drawn) | 0.2 | IC50 [2]: 8.1 nM; IC50 [3]: 8.7 nM; inhibition in vivo at 3 mg/kg (Rattus norvegicus [4]): 57%; Activity (Mus musculus [5]): Toxic; inhibition in vivo at 10 mg/kg (Rattus norvegicus [6]): 100%; inhibition in vivo at 3 mg/kg (Mus musculus [7]): 43%; Ki [8]: 0.1 nM
CC1CCN(c2nc(C(F)(F)F)ccc2CNC(=O)C(C)c2ccc(N(CC#N)S(C)(=O)=O)c(F)c2)CC1 (stereo not drawn) |  | Ki [1]: Not Active
COc1cc(C(C)C(=O)NCc2ccc(C(F)(F)F)nc2N2CCC(C)CC2)cc(OC)c1NS(C)(=O)=O (stereo not drawn) | 1.6 | 
CC1CCN(c2nc(C(F)(F)F)ccc2CNC(=O)C(C)c2ccc(NS(C)(=O)=O)c(Br)c2)CC1 (stereo not drawn) | 3.2 | 
COc1cc(C(C)C(=O)NCc2ccc(C(F)(F)F)nc2N2CCC(C)CC2)ccc1NS(C)(=O)=O (stereo not drawn) | 0.8 | 
